Test results reported in US12440433B2, “Brightening cosmetic composition comprising sodium pyruvate as active ingredient” (LG HOUSEHOLD & HEALTH CARE LTD., priority 2020, dated 2025).

Test system: B16F10 cells
Assay: Melanogenesis inhibitory efficiency test (melanin amount in α-MSH-stimulated B16F10 cells)
Format: cell-based
Conditions: for Melanin amount (%) / Melanogenesis inhibitory efficiency (symbol): 10 nM α-MSH; for Melanin amount (%) / Melanogenesis inhibitory efficiency (symbol) / Melanogenesis inhibitory efficiency: 48 hours; for Melanin amount (%): absorbance at 405 nm, ingredient concentrations (wt %) per Table 1; for Melanogenesis inhibitory efficiency (symbol): symbol for no effect; for melanogenesis inhibitory effect (in words): urea or hydroxyethyl urea used alone; for Melanogenesis inhibitory efficiency: (Melanin amount upon no treatment − upon treatment)/(upon no treatment) × 100, 10 nM α-MSH
Method: In order to confirm melanogenesis inhibitory efficacy caused by sodium pyruvate, first, B16F10 cells were dispensed into a 6-well plate at 1×10^5 cells/well and cultured in a DMEM medium containing 10% FBS and 1% penicillin/streptomycin under conditions of 37° C. and 5% CO2 for 24 hours. […] The resulting cells were harvested, added to 100 μl of a lysis buffer (1N NaOH, 10% DMSO), and then allowed to react at 90° C. for 20 minutes, and melanin amounts were measured at 405 nm (EPOCH, Biotek). The melanin amount measurement results are as follows.

Row | Compound | Melanin amount (%) | Melanogenesis inhibitory efficiency (symbol) | melanogenesis inhibitory effect (in words) | Melanogenesis inhibitory efficiency [%]
1 | NC(N)=O [compound 4, urea] | 100 | *** (100 or more has no effect) | a melanogenesis inhibitory effect was not shown | 
2 | NC(=O)NCCO [compound 2, hydroxyethyl urea] |  |  | a melanogenesis inhibitory effect was not shown | 
3 | CC(=O)C(=O)[O-].[Na+] [Comparative Example 11, sodium pyruvate] | 64 |  |  | 36
4 | CC(=O)C(=O)[O-].[Na+] [compound 9, sodium pyruvate] | 82 |  |  | 18
5 | CC(=O)C(=O)[O-].[Na+] [compound 10, sodium pyruvate] | 77 |  |  | 23
6 | NC(=O)NCCO [compound 3, hydroxyethyl urea] | 100 | *** (100 or more has no effect) |  | 
7 | CC(=O)C(=O)[O-].[Na+] [compound 8, sodium pyruvate] | 92 |  |  | 8
